Measured values: article PMC10426190 (Breast Cancer Research : BCR, 2023)

Test system: E2-induced (ER target) genes in MCF7
Assay: Gene expression analysis by RNA-sequencing in MCF7 with E2 stimulation
Assay type: cell-based, human
Conditions: MCF7; 1 nM E2 ± 1 μM compound, 24 h
Experimental: MCF7 were cultured in hormone deprivation media (with 10% charcoal-stripped FBS) for at least 3 days before assay. Trypsinized cells were seeded in a 12-well plate, stimulated with 1 nM β-estradiol (E2), and treated with/without 1 μM compounds for 24 h. Total RNA was extracted using the TRIzol reagent according to the manufacturer’s protocol. RNA purity and quantification were evaluated using the NanoDrop 2000 spectrophotometer (Thermo Scientific, USA). RNA integrity was assessed using the Agilent 2100 Bioanalyzer (Agilent Technologies, Santa Clara, CA, USA). Then the libraries were constructed using TruSeq Stranded mRNA LT Sample Prep Kit (Illumina, San Diego, CA, USA) according to the manufacturer’s instructions. The transcriptome sequencing and analysis were conducted by OE Biotech Co., Ltd. (Shanghai, China). The libraries were sequenced on an Illumina HiSeq X Ten platform and 150 bp paired-end reads were generated. […] Raw data (raw reads) of FASTq format were firstly processed using Trimmomatic and the low-quality reads were removed to obtain the clean reads. […] The clean reads were mapped to the human genome (GRCh38) using HISAT2 [27]. FPKM [28] of each gene was calculated using Cufflinks, and the read counts of each gene were obtained by HTSeqcount. Differential expression analysis was performed using the DESeq (2012) R package.
MCF7 with hormone-deprived pre-treatment were administrated ER ligands or not present with 1 nM E2 stimulation for 24 h incubation in a 12-well plate. Total mRNA was isolated from treated cells and sequenced on an Illumina HiSeq X Ten platform. FPKM of each gene was calculated using Cufflinks and Differential expression genes analysis by using the DESeq (2012) R package. […] T47D EFM-19 and HCC1500 cells were grown in RPMI media supplemented with 10% charcoal-stripped FBS for 14 days and then treated with ER antagonist (1 μM) or DMSO in the presence E2 (1nM) stimulation for 24 h before RNA isolation and gene expression analysis as described in methods. […] The uteruses were harvested 24 h after the final doses and stained by toluidine blue. Endometrial height was assessed from the basement membrane to the luminal border (scale bar in green lines: 200 μm), Arrows indicate the uterine epithelium (e).

`C[C@]12CC[C@@H]3c4ccc(O)cc4C[C@@H](CCCCCCCCC[S+]([O-])CCCC(F)(F)C(F)(F)F)[C@H]3[C@@H]1CC[C@@H]2O` (some centres unmarked) [Fulvestrant] was tested, and the ACTG2 expression was 1.20 FPKM, the ADCY1 expression was 6.76 FPKM and the AGR3 expression was 2.46 FPKM. The AMZ1 expression was 0.77 FPKM, the ANLN expression was 18.71 FPKM and the ARHGAP36 expression was 0.28 FPKM. It also gave an ASCL1 expression of 0.54 FPKM, an ASF1B expression of 26.04 FPKM and an ASMTL-2 expression of 1.41 FPKM. The ATAD2 expression was 23.77 FPKM, the ATRNL1 expression was 0.05 FPKM and the AURKB expression was 19.26 FPKM. The BIRC5 expression was 23.46 FPKM, the BLM expression was 2.45 FPKM and the BMPER expression was 0.11 FPKM. It also gave a BRCA1 expression of 2.96 FPKM, a BRCA2 expression of 2.04 FPKM and a BRIP1 expression of 17.34 FPKM. The BUB1B expression was 8.27 FPKM, the C1orf226 expression was 3.74 FPKM and the C5AR2 expression was 0.51 FPKM. For the same compound, the CA2 expression was 87.89 FPKM, the CA12 expression was 18.70 FPKM and the CALCR expression was 0.77 FPKM. The CAV1 expression was 5.48 FPKM, the CCN5 expression was 22.35 FPKM and the CCNA2 expression was 15.79 FPKM. It also gave a CCNE2 expression of 4.70 FPKM, a CD99-2 expression of 1.09 FPKM and a CDC6 expression of 4.59 FPKM. It also gave a CDC25A expression of 1.67 FPKM, a CDC45 expression of 5.51 FPKM and a CDCA3 expression of 6.06 FPKM. The CDCA4 expression was 12.74 FPKM, the CDCA5 expression was 11.52 FPKM and the CDCA7 expression was 1.84 FPKM. It also gave a CDH26 expression of 0.21 FPKM, a CDK1 expression of 14.26 FPKM and a CDT1 expression of 21.42 FPKM. For the same compound, the CENPI expression was 2.93 FPKM, the CENPU expression was 4.96 FPKM and the CHAF1B expression was 1.52 FPKM. For the same compound, the CHEK1 expression was 2.32 FPKM, the CKS1B expression was 46.61 FPKM and the CLSPN expression was 1.80 FPKM. It also gave a COL12A1 expression of 1.73 FPKM, a CXCL12 expression of 1.70 FPKM and a DDIAS expression of 2.63 FPKM. It also gave a DHRSX-2 expression of 0.11 FPKM, a DKK1 expression of 26.72 FPKM and a DNA2 expression of 2.77 FPKM. It also gave a DPYSL5 expression of 0.36 FPKM, a DSCC1 expression of 4.38 FPKM and a DTL expression of 1.38 FPKM. The E2F1 expression was 7.00 FPKM, the E2F2 expression was 1.27 FPKM and the E2F7 expression was 2.55 FPKM. For the same compound, the E2F8 expression was 3.66 FPKM, the ELOVL2 expression was 3.33 FPKM and the EME1 expression was 3.73 FPKM. It also gave an ERCC6L expression of 1.34 FPKM, an ESCO2 expression of 2.24 FPKM and an ESPL1 expression of 7.73 FPKM. It also gave an EXO1 expression of 2.15 FPKM, an FAM20A expression of 0.46 FPKM and an FAM111B expression of 2.82 FPKM. For the same compound, the FANCA expression was 9.92 FPKM, the FANCD2 expression was 5.42 FPKM and the FANCI expression was 16.43 FPKM. The FEN1 expression was 24.35 FPKM, the FIGNL1 expression was 2.36 FPKM and the FKBP4 expression was 43.52 FPKM. For the same compound, the GATA4 expression was 0.00 FPKM, the GFRA1 expression was 26.23 FPKM and the GINS1 expression was 8.52 FPKM. For the same compound, the GINS2 expression was 8.09 FPKM, the GJA1 expression was 0.06 FPKM and the GLA expression was 31.47 FPKM. For the same compound, the GP1BB expression was 0.79 FPKM, the GPR68 expression was 0.13 FPKM and the GPRIN1 expression was 2.95 FPKM. It also gave a GREB1 expression of 3.94 FPKM, an H2AX expression of 89.38 FPKM and an HBB expression of 0.00 FPKM. For the same compound, the HELLS expression was 2.89 FPKM, the HEY2 expression was 0.43 FPKM and the HMGB2 expression was 118.94 FPKM. The IGFBP4 expression was 26.82 FPKM, the IGSF1 expression was 3.55 FPKM and the ITGA2B expression was 0.30 FPKM. It also gave a KIF11 expression of 11.20 FPKM, a KIF18B expression of 4.13 FPKM and a KIFC1 expression of 12.36 FPKM. The KLK11 expression was 1.75 FPKM, the KNL1 expression was 3.41 FPKM and the KNTC1 expression was 5.81 FPKM. For the same compound, the LHX2 expression was 1.30 FPKM, the LIG1 expression was 19.47 FPKM and the LMNB1 expression was 49.03 FPKM. The MAD2L1 expression was 6.32 FPKM, the MCM2 expression was 24.98 FPKM and the MCM3 expression was 30.18 FPKM. For the same compound, the MCM4 expression was 38.73 FPKM, the MCM5 expression was 9.71 FPKM and the MCM6 expression was 18.69 FPKM. The MCM7 expression was 65.17 FPKM, the MCM10 expression was 2.51 FPKM and the MELK expression was 9.66 FPKM. For the same compound, the MKI67 expression was 19.11 FPKM, the MYB expression was 3.86 FPKM and the MYBL1 expression was 0.96 FPKM. The MYBL2 expression was 29.90 FPKM, the NCAPG2 expression was 15.05 FPKM and the NCAPG expression was 5.76 FPKM. The NPY1R expression was 3.20 FPKM, the ORC1 expression was 2.67 FPKM and the ORC6 expression was 5.57 FPKM. For the same compound, the PAQR4 expression was 9.57 FPKM, the PBK expression was 14.24 FPKM and the PCLAF expression was 28.12 FPKM. The PCNA expression was 48.34 FPKM, the PDZK1 expression was 0.47 FPKM and the PGR expression was 0.52 FPKM. The PKIB expression was 16.14 FPKM, the PKMYT1 expression was 9.90 FPKM and the POLA1 expression was 2.69 FPKM. For the same compound, the POLA2 expression was 4.51 FPKM, the POLD1 expression was 11.19 FPKM and the POLE2 expression was 2.45 FPKM. The POLE expression was 11.56 FPKM, the POLQ expression was 2.64 FPKM and the PRIM1 expression was 7.88 FPKM. It also gave a PRSS23 expression of 49.30 FPKM, an RAB31 expression of 6.58 FPKM and an RAD51AP1 expression of 5.24 FPKM. It also gave an RAD51 expression of 3.28 FPKM, an RAD54L expression of 3.44 FPKM and an RAMP3 expression of 0.40 FPKM. It also gave an RAPGEFL1 expression of 2.18 FPKM, an RBL1 expression of 2.06 FPKM and an RECQL4 expression of 10.79 FPKM. It also gave an RERG expression of 2.17 FPKM, an RET expression of 1.74 FPKM and an RFC2 expression of 14.47 FPKM. It also gave an RFC3 expression of 3.82 FPKM, an RFC4 expression of 10.05 FPKM and an RNASEH2A expression of 24.71 FPKM. It also gave an RRM1 expression of 19.08 FPKM, an RRM2 expression of 24.81 FPKM and an RUBCNL expression of 0.10 FPKM. It also gave an SDK2 expression of 0.25 FPKM, an SFXN2 expression of 7.17 FPKM and an SHCBP1 expression of 2.87 FPKM. The SKA3 expression was 4.69 FPKM, the SLC6A14 expression was 8.71 FPKM and the SMC2 expression was 6.16 FPKM. The SPC24 expression was 6.59 FPKM, the SPC25 expression was 6.79 FPKM and the STC2 expression was 28.34 FPKM. The TACC3 expression was 19.06 FPKM, the TCF19 expression was 6.28 FPKM and the TCOF1 expression was 9.75 FPKM. The TGM2 expression was 0.56 FPKM, the TICRR expression was 3.71 FPKM and the TK1 expression was 42.16 FPKM. For the same compound, the TMEM26 expression was 0.84 FPKM, the TMEM164 expression was 6.22 FPKM and the TONSL expression was 9.44 FPKM. For the same compound, the TOP2A expression was 29.21 FPKM, the TP73 expression was 1.03 FPKM and the TRIP13 expression was 6.92 FPKM. For the same compound, the TUBA1B expression was 473.72 FPKM, the TUBB expression was 230.78 FPKM and the TYMS expression was 25.13 FPKM. It also gave a UBE2C expression of 32.42 FPKM, a UBE2T expression of 45.52 FPKM and a UHRF1 expression of 6.71 FPKM. For the same compound, the UNG expression was 29.02 FPKM, the WDHD1 expression was 4.38 FPKM and the WDR62 expression was 5.55 FPKM. For the same compound, the WDR76 expression was 1.69 FPKM, the XRCC2 expression was 2.48 FPKM and the XRCC3 expression was 5.83 FPKM. The ZGRF1 expression was 1.75 FPKM and the ZNF367 expression was 4.18 FPKM.
